# Tests used:
# gastric mucosal cells = assay: Cytotoxicity of NSAIDs to gastric mucosal cells; type: cell-based; details: order among the five NSAIDs of the same figure (FIG. 3 or FIG. 4)
# From the text: Specifically, the cytotoxicity of 10 clinically used NSAIDs as measured by the decrease in cell viability (i.e., cytotoxicity due to necrosis/apoptosis as measured by the decrease in cell viability) was compared to their membrane toxicity determined by the liposome model.
# [1] = Calcein leakage from calcein-encapsulating liposome in the presence of NSAIDs (membrane toxicity); details: 30° C., 10 min, fluorescence at 520 nm; order among the five NSAIDs of the same figure
# [2] = Calcein leakage from liposome in the presence of an NSAID and the gastric mucosa-protecting agent teprenone; details: for calcein leakage from liposome in the presence of NSAID and teprenone: teprenone 0, 10^-7 to 10^-4 M, 30° C., 10 min
# Method: Teprenone (product name, Selbex (registered trademark)) was used as the gastric mucosa-protecting agent and was used at concentrations of 0 M (Control), 10^−7 M, 10^−6 M, 10^−5 M and 10^−4 M.
# Each NSAID and teprenone at respective concentrations were added to the liposome solution obtained in Example 1. Each solution was incubated at 30° C. for 10 min. Subsequently, the fluorescence at 520 nm was measured for each solution to determine the calcein leakage from liposome (i.e., membrane toxicity).
compound,measurement,setting,value
O=C(O)Cc1ccccc1Nc1c(Cl)cccc1Cl [diclofenac],cytotoxicity to gastric mucosal cells (rank order),gastric mucosal cells,indomethacin>diclofenac>flurbiprofen>ibuprofen>ketoprofen
CC(C(=O)O)c1cccc(C(=O)c2ccccc2)c1 (stereo not drawn) [ketoprofen],"calcein leakage from the liposome (membrane toxicity), rank order",[1],decreased in the same order
CS(=O)(=O)Nc1ccc([N+](=O)[O-])cc1Oc1ccccc1 [nimesulide],cytotoxicity to gastric mucosal cells (rank order),gastric mucosal cells,celecoxib>mefenamic acid>flufenamic acid>nimesulide>etodolac
CCc1cccc2c3c([nH]c12)C(CC)(CC(=O)O)OCC3 (stereo not drawn) [etodolac],cytotoxicity to gastric mucosal cells (rank order),gastric mucosal cells,celecoxib>mefenamic acid>flufenamic acid>nimesulide>etodolac
CC(C(=O)O)c1ccc(-c2ccccc2)c(F)c1 (stereo not drawn) [flurbiprofen],cytotoxicity to gastric mucosal cells (rank order),gastric mucosal cells,indomethacin>diclofenac>flurbiprofen>ibuprofen>ketoprofen
teprenone,calcein leakage from liposome in the presence of NSAID and teprenone (repeat experiment),[2]; 0.05 mM and 0.1 mM celecoxib,reduced the calcein leakage from the liposome
same,calcein leakage from liposome in the presence of NSAID and teprenone,[2]; 0.08 mM celecoxib,the calcein leakage decreases as the amount of teprenone is increased
same,calcein leakage from liposome in the presence of NSAID and teprenone (repeat experiment),[2]; 2 mM and 10 mM diclofenac,reduced the calcein leakage from the liposome
same,calcein leakage from liposome in the presence of NSAID and teprenone (repeat experiment),[2]; 4 mM and 8 mM indomethacin,reduced the calcein leakage from the liposome
same,calcein leakage from liposome in the presence of NSAID and teprenone,[2]; 4 mM diclofenac,the calcein leakage decreases as the amount of teprenone is increased
same,calcein leakage from liposome in the presence of NSAID and teprenone,[2]; 6 mM indomethacin,the calcein leakage decreases as the amount of teprenone is increased
same,calcein leakage from liposome in the presence of NSAID and teprenone,[2]; 20 mM ibuprofen,the calcein leakage decreases as the amount of teprenone is increased
same,calcein leakage from liposome in the presence of NSAID and teprenone (repeat experiment),[2]; 40 mM and 60 mM ibuprofen,reduced the calcein leakage from the liposome
O=C(O)c1ccccc1Nc1cccc(C(F)(F)F)c1 [flufenamic acid],cytotoxicity to gastric mucosal cells (rank order),gastric mucosal cells,celecoxib>mefenamic acid>flufenamic acid>nimesulide>etodolac
same,"calcein leakage from the liposome (membrane toxicity), rank order",[1],decreased in the same order
Cc1ccc(-c2cc(C(F)(F)F)nn2-c2ccc(S(N)(=O)=O)cc2)cc1 [celecoxib],cytotoxicity to gastric mucosal cells (rank order),gastric mucosal cells,celecoxib>mefenamic acid>flufenamic acid>nimesulide>etodolac
Cc1cccc(Nc2ccccc2C(=O)O)c1C [mefenamic acid],cytotoxicity to gastric mucosal cells (rank order),gastric mucosal cells,celecoxib>mefenamic acid>flufenamic acid>nimesulide>etodolac
COc1ccc2c(c1)c(CC(=O)O)c(C)n2C(=O)c1ccc(Cl)cc1 [indomethacin],cytotoxicity to gastric mucosal cells (rank order),gastric mucosal cells,indomethacin>diclofenac>flurbiprofen>ibuprofen>ketoprofen

# Source: US20080113014A1, “Method for Screening for Compounds Safe for Gastric Mucosa” (LTT BIO-PHARMA CO., LTD., priority 2004, published 2008)
